Measurements as given in patent publication US11389382B2, “Biphase chemical peel” (L'OREAL, priority 2019, dated 2022).

Assays:
[1] = acute oral toxicity, mutagenicity, skin irritation, skin sensitization, phototoxicity; cited from earlier work
stratum corneum samples = experiment: In vitro stratum corneum comparison of ΔT using differential scanning calorimetry (lipid disorganization); conditions: DSC 20° C. to 120° C. at 5° C./min; 0.1 g/sample on SC surface for 15 min in 75% RH
Method: In Vitro Stratum Corneum Comparison of ΔT using differential scanning calorimetry (DSC) to characterize the stability of a protein or other biomolecule directly in its native form. It does this by measuring the heat change associated with the molecule's thermal denaturation when heated at a constant rate.
Studies were conducted with each of the exemplified inventive and comparative compositions, to evaluate effect of the compositions on the stratum corneum. Inventive 1 and Inventive 2 compositions and the Comparative composition together with Jessner peel, glycolic acid alone and isopropyl myristate controls were evaluated on SC samples according to the following procedure. Stratum corneum samples were equilibrated at 75% RH overnight. Inventive and Comparative Compositions and control treatments applied on SC surface (0.1 g/sample) for 15 min in 75% RH. The SC surface was wiped clean and rinsed with DI water. Allow to dry in 75% RH overnight. The DSC profile was measured from 20° C. to 120° C. at 5° C./min.

forearm skin = experiment: In vivo tape stripping, protein removed, Micro BCA assay (efficacy of desquamation); design: species or system human; conditions: tape stripping of forearm after 15 min treatment; 4 tape strippings per region, average of 3 regions, single person
Method: Example 5: In Vivo Tape Stripping Protein Removed Using a Micro […] Assay to Characterize the Efficacy of Desquamation
Studies were conducted with each of the exemplified inventive and comparative compositions, to evaluate effect of the compositions on live skin tape stripping samples. Inventive 1 and Inventive 2 compositions and the Comparative composition together with Jessner peel, glycolic acid alone and isopropyl myristate controls were evaluated according to the following procedure. Tape strips of skin areas tested with each composition were obtained, with 4 tape strippings per region; Average of 3 regions; Experiment done on single person rinse the forearm with distilled water and dry it for 3 minutes; Wipe with the peel test composition saturated cotton pads on the designated area and dry it for 15 min; Rinse the forearm with the water and dry the moisture by placing a tissue and patting the tissue. Air dry it for 3 min; Perform the tape stripping—(1) put the tape on, (2) place the metal plate on top of the tape, and (3) put weight (2 kg) for 5 seconds.—3 tapes (3 different regions of the skin)/peel test composition×4 tape stripping; Each tape (1.4 cm) was inserted in a 2 mL Eppendorf tube and 500 uL of PBS was added to each tube; Shaking condition ([…]) for 2 hours @ room temperature; Sonication for 20 min in ice water; Micro BCA assay.

Compound | adverse effects in basic toxicological tests [1] | ΔT (measurement of lipid disorganization) (stratum corneum samples) | Protein Content (protein removed) (forearm skin) [μg/cm^2]
CC(c1ccccc1)c1ccc(O)cc1O (centres unmarked) [Phenylethyl resorcinol] | not shown adverse effects |  | 
O=C(O)CO [Glycolic Acid Control, glycolic acid] |  | 5.94 ± 0.41 | 1.65 ± 0.02
CCCCCCCCCCCCCC(=O)OC(C)C [Isopropyl myristate control, isopropyl myristate] |  | 6.40 ± 0.1 | 2.4 ± 0.88
